Experiment [1] addresses T1, Cholinesterase (Equus caballus, UniProt P81908). Put plainly: Inhibition of horse serum BuChE using butyrylthiocoline iodide as substrate incubated for 20 mins by Ellman method. A general note: In Ellman's method for cholinesterases, released thiocholine reacts with DTNB.
For experiment [2], the target named is Cholinesterase (Equus caballus) (UniProt P81908). Put plainly: Inhibition of horse serum BuChE using butyrylthiocholine iodide as substrate at 2 uM incubated for 20 mins by Ellman method.
For experiment [3] the target is unchanged. Put plainly: Inhibition of horse serum BuChE using butyrylthiocoline iodide as substrate at 2 uM preincubated for 20 mins followed by 100 fold dilution by Ellman method.
For experiment [4], the target named is T1, Cholinesterase. In words: Non-competitive inhibition of horse serum BuChE using butyrylthiocoline iodide as substrate incubated for 20 mins by Lineweaver-Burk plot analysis.
For experiment [5], the target named is Beta-secretase 1 (Mus musculus) (UniProt P56818). In words: Inhibition of mouse BACE-1 at 1 uM preincubated for 10 mins followed by fluorescent peptide substrate addition measured for 30 mins by fluorescence plate reader method.
Experiment [6] deals with T1, Cholinesterase. In words: Mixed inhibition of horse serum BuChE using butyrylthiocoline iodide as substrate incubated for 20 mins by Lineweaver-Burk plot analysis.
Experiment [7] has as its target T2, Acetylcholinesterase (Homo sapiens, UniProt P22303). In words: Non-competitive inhibition of human erythrocytes AchE using acetylthiocholine iodide as substrate incubated for 20 mins by Lineweaver-Burk plot analysis.
In experiment [8] the target is Beta-secretase 1 (Mus musculus, UniProt P56818). In words: Inhibition of mouse BACE-1 preincubated for 10 mins followed by fluorescent peptide substrate addition measured for 30 mins by fluorescence plate reader method.
Experiment [9] can be described thus: Selectivity ratio of Ki for horse serum BuChE to Ki for human erythrocytes AchE.
Experiment [10] has as its target T2, Acetylcholinesterase. Put plainly: Inhibition of human erythrocytes AchE using acetylthiocholine iodide as substrate incubated for 20 mins by Ellman method.
The nature of experiment [11]: Selectivity ratio of IC50 for horse serum BuChE to IC50 for human erythrocytes AchE.
Experiment [12] has as its target T2, Acetylcholinesterase.
Description: Mixed inhibition of human erythrocytes AchE using acetylthiocholine iodide as substrate incubated for 20 mins by Lineweaver-Burk plot analysis

Data on 15 compounds can be found in ChEMBL document CHEMBL3817803, “Design, Synthesis, and Evaluation of Donepezil-Like Compounds as AChE and BACE-1 Inhibitors” (ACS Med Chem Lett, 2016).

SMILES strings stand for the structures. Active and inactive are the calls of the source. No cut-off for these calls is given here. Where only a bound is given, the exact number is not on record here.

Beta-secretase 1, sequence (P56818 whole entry): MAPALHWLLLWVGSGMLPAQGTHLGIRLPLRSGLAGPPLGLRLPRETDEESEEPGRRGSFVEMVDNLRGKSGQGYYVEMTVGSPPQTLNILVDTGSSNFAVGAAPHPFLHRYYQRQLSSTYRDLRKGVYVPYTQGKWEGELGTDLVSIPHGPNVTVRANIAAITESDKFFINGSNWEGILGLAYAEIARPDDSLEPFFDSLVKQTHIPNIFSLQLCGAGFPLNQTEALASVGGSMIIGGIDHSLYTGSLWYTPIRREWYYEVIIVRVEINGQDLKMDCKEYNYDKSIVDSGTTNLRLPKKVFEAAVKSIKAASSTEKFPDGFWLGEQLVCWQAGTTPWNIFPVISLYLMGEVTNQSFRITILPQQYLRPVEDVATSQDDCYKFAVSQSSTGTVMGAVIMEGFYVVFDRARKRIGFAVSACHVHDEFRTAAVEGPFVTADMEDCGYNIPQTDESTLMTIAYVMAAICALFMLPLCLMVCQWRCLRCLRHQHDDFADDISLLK
Beta-secretase 1 (Mus musculus), sequence (P56818 whole entry): as above
T1 sequence (P81908 whole entry): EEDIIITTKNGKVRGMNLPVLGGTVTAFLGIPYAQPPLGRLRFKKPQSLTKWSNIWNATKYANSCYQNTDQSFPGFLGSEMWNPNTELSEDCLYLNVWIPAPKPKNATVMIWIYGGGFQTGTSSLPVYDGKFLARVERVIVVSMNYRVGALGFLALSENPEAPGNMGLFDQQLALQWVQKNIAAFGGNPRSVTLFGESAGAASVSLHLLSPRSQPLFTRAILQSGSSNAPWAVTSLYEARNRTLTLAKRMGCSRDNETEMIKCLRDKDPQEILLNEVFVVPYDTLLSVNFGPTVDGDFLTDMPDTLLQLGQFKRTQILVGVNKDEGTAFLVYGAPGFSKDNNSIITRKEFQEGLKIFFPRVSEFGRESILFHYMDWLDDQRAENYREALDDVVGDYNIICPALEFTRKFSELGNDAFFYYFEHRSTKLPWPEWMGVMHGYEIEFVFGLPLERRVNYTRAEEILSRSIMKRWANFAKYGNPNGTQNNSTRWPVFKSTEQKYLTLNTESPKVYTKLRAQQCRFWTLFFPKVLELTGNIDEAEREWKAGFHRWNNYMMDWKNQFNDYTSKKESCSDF
Cholinesterase (Equus caballus), sequence (P81908 whole entry): as above
T2 sequence (P22303 whole entry): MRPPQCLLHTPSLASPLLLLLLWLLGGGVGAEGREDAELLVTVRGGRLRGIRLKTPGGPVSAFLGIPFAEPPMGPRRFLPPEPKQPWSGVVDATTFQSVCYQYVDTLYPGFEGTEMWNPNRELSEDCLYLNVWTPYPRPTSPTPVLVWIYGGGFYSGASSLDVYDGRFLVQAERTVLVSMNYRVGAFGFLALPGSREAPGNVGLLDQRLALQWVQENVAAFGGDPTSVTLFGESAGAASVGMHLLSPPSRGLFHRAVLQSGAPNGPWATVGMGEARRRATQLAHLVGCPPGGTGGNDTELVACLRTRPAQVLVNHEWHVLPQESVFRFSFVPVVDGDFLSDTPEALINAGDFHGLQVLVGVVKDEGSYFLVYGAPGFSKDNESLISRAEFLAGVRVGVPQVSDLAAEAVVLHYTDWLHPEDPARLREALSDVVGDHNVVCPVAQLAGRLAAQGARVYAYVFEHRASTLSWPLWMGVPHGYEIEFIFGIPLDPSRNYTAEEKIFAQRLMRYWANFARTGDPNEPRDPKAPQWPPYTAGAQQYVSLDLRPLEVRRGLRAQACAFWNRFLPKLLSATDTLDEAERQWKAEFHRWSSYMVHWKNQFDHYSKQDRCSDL

Usually IC50 stands for the concentration at which inhibition is half-maximal. The low end stands for inhibition by little substance, the high end for a need for much substance. One may read the Ki as a measure of affinity in units of concentration, obtained from inhibition or displacement. Read a high Ki as weaker binding. Regarding `COc1ccc2c(c1)C(=O)/C(=C/C1CCN(Cc3ccc4c(c3)OCO4)CC1)C2`, in [1], it took 9820 nM to reach half-maximal inhibition (IC50). Also, the inhibition entry in experiment [2] and in experiment [5] was “inactive” in each case. Moreover, the inhibition entry in experiment [3] was “Active”. The compound further showed a Ki in experiment [4] of 4330 nM.
For the compound `COc1cc2c(cc1OC)C(=O)/C(=C/C1CCN(Cc3ccccc3)CC1)C2`, the figures for the Ki in experiment [6] and in experiment [7] were 2440 nM and 35 nM, respectively. Also, the values for the IC50 in experiment [1], in experiment [8] and in experiment [10] were 4740 nM, less than 1000 nM and 58 nM, respectively. The Ratio Ki in experiment [9] was determined as 71. Also, the inhibition entry in [2] is “inactive”. Also, the Ratio IC50 in [11] was 81. For the same compound, the inhibition entry in [3] and in experiment [5] was “Active” each time.
Regarding `COc1cc2c(cc1O)C(=O)/C(=C/C1CCN(Cc3ccccc3)CC1)C2`, the Ki worked out at 2820 nM in experiment [7] and 10600 nM in experiment [4]. The IC50 in experiment [1] amounted to 7350 nM; in [10], 1540 nM. In experiment [9], the Ratio Ki was 4. Also, the inhibition entry in [2] was “inactive”. Also, in experiment [11], the Ratio IC50 was determined as 5. Also, the inhibition result in experiment [3] is “Active”.
For `O=C1/C(=C/C2CCN(Cc3ccccc3)CC2)Cc2cc3c(cc21)OCO3`, the IC50 is 15100 nM in [1], less than 1000 nM in experiment [8] and 755 nM in [10]. The inhibition constant Ki worked out at 980 nM in experiment [12] and 7250 nM in [4]. In addition, the Ratio Ki in experiment [9] was 7. For the same compound, the inhibition result in experiment [2] was “inactive”. Further, the Ratio IC50 in [11] is 20. For the same compound, the inhibition result in experiment [3] and in experiment [5] was “Active” throughout.
In the case of `COc1cc2c(cc1O)C/C(=C\C1CCN(Cc3ccccc3)CC1)C2=O`, the results for the Ki in [7] and in experiment [4] were 2820 nM and 10600 nM, respectively. Besides, the results for the concentration for half-maximal inhibition (IC50) in experiment [1] and in experiment [10] were 7350 nM and 1540 nM, respectively. Moreover, the Ratio Ki in [9] was 4. Also, the inhibition result in [2] is “inactive”. Also, in experiment [11], the Ratio IC50 stood at 5. Moreover, in [3], the inhibition result is “Active”.
`COc1ccc2c(c1)C(=O)/C(=C/C1CCN(Cc3ccccc3)CC1)C2`: the inhibitory constant (Ki) was 1140 nM in [6] and 260 nM in experiment [7]. Also, the half-maximal inhibitory concentration (IC50) in experiment [1] amounted to 2650 nM; in [10] it was 342 nM. Besides, the Ratio Ki in [9] was 4. In experiment [2], the inhibition result is “inactive”. In addition, the Ratio IC50 in experiment [11] was 8. For the same compound, the inhibition result in experiment [3] was “Active”.
`COc1cccc2c1C(=O)/C(=C/C1CCN(Cc3ccc4c(c3)OCO4)CC1)C2` came in with an IC50 in experiment [1] of 4820 nM. Besides, the inhibition entry in [2] and in experiment [5] was “inactive” throughout. Besides, the inhibition entry in experiment [3] is “Active”. The compound further came in with a Ki in [4] of 6440 nM.
For `COc1cccc(CN2CCC(/C=C3\Cc4cc(OC)ccc4C3=O)CC2)c1`, the values for the Ki in experiment [7] and in experiment [4] were 554 nM and 3490 nM, respectively. The IC50 in [1] was 2170 nM; in experiment [8], less than 1000 nM; in [10], 853 nM. In addition, the Ratio Ki in experiment [9] is 6. In addition, the inhibition entry in experiment [2] was “inactive”. Besides, the Ratio IC50 in experiment [11] amounted to 3. Besides, the inhibition result in experiment [3] and in [5] was “Active” throughout.
Regarding `O=C1/C(=C/C2CCN(Cc3ccccc3)CC2)Cc2ccc(O)cc21`, the Ki in experiment [7] amounted to 4220 nM; in [4], 5610 nM. Besides, the half-inhibitory concentration (IC50) was 5800 nM in [1] and 1500 nM in experiment [10]. The Ratio Ki in experiment [9] was 1. In [2], the inhibition entry is “inactive”. Besides, in experiment [11], the Ratio IC50 is 4. Moreover, the inhibition entry in [3] was “Active”.
Turning to `COc1ccc2c(c1)C/C(=C\C1CCN(Cc3ccccc3)CC1)C2=O`, the figures for the inhibition constant (Ki) in [7] and in experiment [4] were 29 nM and 3140 nM, respectively. The figures for the IC50 in experiment [1], in experiment [8] and in experiment [10] were 5730 nM, less than 1000 nM and 43 nM, respectively. Also, the Ratio Ki in [9] was 110. For the same compound, in experiment [2], the inhibition entry is “inactive”. In addition, the Ratio IC50 in experiment [11] amounted to 132. Moreover, the inhibition result in [3] and in [5] was “Active” throughout.
As for `COc1cccc(CN2CCC(/C=C3\Cc4cccc(OC)c4C3=O)CC2)c1`, the inhibition constant Ki came out at 17200 nM in [7] and 2380 nM in experiment [4]. In addition, the half-inhibitory concentration (IC50) turned out to be 5410 nM in [1] and 12200 nM in [10]. Besides, the Ratio Ki in experiment [9] was less than 1. For the same compound, the inhibition result in experiment [2] is “inactive”. Further, the Ratio IC50 in experiment [11] is less than 1. Also, in experiment [3], the inhibition entry was “Active”.
With `COc1cccc(CN2CCC(/C=C3\Cc4ccc(OC)cc4C3=O)CC2)c1`, the figures for the inhibition constant (Ki) in [7] and in [4] were 119000 nM and 3890 nM, respectively. The half-inhibitory concentration (IC50) in experiment [1] is 1620 nM; in experiment [10], 34500 nM. Further, the Ratio Ki in [9] is less than 1. Also, the inhibition result in experiment [2] is “inactive”. For the same compound, the Ratio IC50 in experiment [11] is less than 1. Besides, the inhibition result in experiment [3] is “Active”.
As for `COc1cccc2c1C(=O)/C(=C/C1CCN(Cc3ccccc3)CC1)C2`, the Ki is 3100 nM in experiment [6] and 1830 nM in experiment [7]. Further, the half-inhibitory concentration (IC50) came out at 1140 nM in experiment [1] and 1510 nM in [10]. For the same compound, the Ratio Ki in experiment [9] was found to be 2. The inhibition result in [2] is “inactive”. Besides, in experiment [11], the Ratio IC50 is 1. Also, the inhibition result in experiment [3] is “Active”.
As to `O=C1/C(=C/C2CCN(Cc3ccccc3)CC2)Cc2cccc(O)c21`, the Ki came out at 6480 nM in [6] and 355 nM in [7]. Moreover, the half-inhibitory concentration (IC50) was 4760 nM in experiment [1], less than 1000 nM in experiment [8] and 636 nM in experiment [10]. The Ratio Ki in experiment [9] turned out to be 18. In experiment [2], the inhibition result is “inactive”. Moreover, the Ratio IC50 in experiment [11] was 7. For the same compound, the inhibition entry in experiment [3] and in experiment [5] was “Active” each time.
Turning to `O=C1/C(=C/C2CCN(Cc3ccccc3)CC2)Cc2cc(O)ccc21`, the Ki in [6] is 8460 nM; in [7] it was 1980 nM. Further, the half-inhibitory concentration (IC50) in experiment [1] was 7590 nM; in experiment [8], less than 1000 nM; in experiment [10] it was 2160 nM. Further, the Ratio Ki in experiment [9] was determined as 4. The inhibition result in experiment [2] was “inactive”. Also, in [11], the Ratio IC50 came out at 4. In addition, the inhibition result in experiment [3] and in [5] was “Active” throughout.
